Laboratory results as given in patent US11420961B2, “Heterocyclic compounds” (Hoffmann-La Roche Inc., priority 2017, dated 2022).

These molecules were tested against T1, MAGL (recombinant wild-type) (Homo sapiens, UniProt Q99685) (assay: 4-NPA assay: MAGL inhibitory activity by hydrolysis of 4-nitrophenylacetate, absorbance at 405 nm). Details: 4-NPA assay (values without footnote [a]).
T1 sequence (Q99685 1-303): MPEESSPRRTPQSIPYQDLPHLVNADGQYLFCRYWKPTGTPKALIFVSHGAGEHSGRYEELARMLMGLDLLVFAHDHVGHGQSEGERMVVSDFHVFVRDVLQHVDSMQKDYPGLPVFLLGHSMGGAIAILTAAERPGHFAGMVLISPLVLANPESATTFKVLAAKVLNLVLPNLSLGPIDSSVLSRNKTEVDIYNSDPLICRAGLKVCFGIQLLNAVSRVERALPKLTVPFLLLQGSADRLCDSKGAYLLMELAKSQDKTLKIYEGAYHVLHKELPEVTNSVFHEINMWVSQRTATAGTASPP
Format: biochemical
Experimental: Compounds were profiled for MAGL inhibitory activity by measuring the enzymatic activity of MAGL by following the hydrolysis of 4-nitorphenylacetate resulting in 4-nitrophenol, which absorbs at 405-412 nm (G. G. Muccioli, G. Labar, D M. Lambert, Chem. Bio. Chem. 2008, 9, 2704-2710). This assay is hereinafter abbreviated “4-NPA assay”.
The 4-NPA assay was carried out in 384 well assay plates (black with clear bottom, non-binding surface treated, Corning Ref. 3655) in a total volume of 40 μL. Compound dilutions were made in 100% DMSO (VWR Chemicals 23500.297) in a polypropylene plate in 3-fold dilution steps to give a final concentration range in the assay from 25 μM to 1.7 nM. 1 μL compound dilutions (100% DMSO) were added to 19 μL MAGL (recombinant wild-type) in assay buffer (50 mM TRIS (GIBCO, 15567-027), 1 mM EDTA (Fluka, 03690-100 ml)). The plate was shaked for 1 min at 2000 rpm (Variomag Teleshake) and then incubated for 15 min at RT. To start the reaction, 20 μL 4-Nitrophenlyacetate (Sigma N-8130) in assay buffer with 6% EtOH was added. The final concentrations in the assay were 1 nM MAGL and 300 μM 4-Nitrophenylacetate. After shaking (1 min, 2000 rpm) and 5 min incubation at RT, the absorbance at 405 nm was measured for a first time (Molecular Devices, SpectraMax Paradigm). A second measurement was then done after incubation for 80 min at RT. From the two measurements, the slope was calculated by substracting the first from the second measurement.

IC50 [nM] | SMILES
0.5 | COc1cccc([C@@H](c2ccccc2)C2CCN(C(=O)c3ccc4c(c3)NC(=O)CO4)CC2)c1 (single isomer, unassigned) [Example 13]
0.5 | Cc1cccc([C@H](c2ccccc2)C2CCN(C(=O)c3ccc4c(c3)NC(=O)CO4)CC2)c1 (single isomer, unassigned) [Example 16]
2400 | O=C1COc2ccc(C(=O)N3CCN(c4nsc5ccccc45)CC3)cc2N1 [Example 91, 6-[4-(1,2-benzothiazol-3-yl)piperazine-1-carbonyl]-4H-1,4-benzoxazin-3-one]
0.4 | COc1cccc(C(c2ccc(F)cc2)C2CCN(C(=O)c3ccc4c(c3)NC(=O)CO4)CC2)c1 (single isomer, unassigned) [Example 121, 6-[4-[(S or R)-(4-Fluorophenyl)-(3-methoxyphenyl)methyl]piperidine-1-carbonyl]-4H-1,4-benzoxazin-3-one]
0.62 | O=C1COc2ccc(C(=O)N3CCC(C(c4ccccc4)n4ccc5ccccc54)CC3)cc2N1 (stereo not drawn) [Example 60, 6-[4-[indol-1-yl(phenyl)methyl]piperidine-1-carbonyl]-4H-1,4-benzoxazin-3-one]
0.2 | O=C1COc2ccc(C(=O)N3CCC(C(c4ccccc4)c4ccc(OCCOCCF)cc4)CC3)cc2N1 (single isomer, unassigned) [Example 96, 6-[4-[(S or R)-[4-[2-(2-Fluoroethoxy)ethoxy]phenyl]-phenyl-methyl]piperidine-1-carbonyl]-4H-1,4-benzoxazin-3-one]
29 | O=C1COc2ccc(C(=O)N3CCC(c4c[nH]c5cc(C(F)(F)F)ccc45)CC3)cc2N1 [Example 25, 6-[4-[6-(trifluoromethyl)-1H-indol-3-yl]piperidine-1-carbonyl]-4H-1,4-benzoxazin-3-one]
6.3 | O=C1COc2ccc(C(=O)N3CCC(C4(c5ccc(Cl)cc5)CCCO4)CC3)cc2N1 (stereo not drawn) [Example 53, 6-[4-[2-(4-chlorophenyl)oxolan-2-yl]piperidine-1-carbonyl]-4H-1,4-benzoxazin-3-one]
1 | Cn1cc(C2CCN(C(=O)c3cc4c(cc3F)OCC(=O)N4)CC2)c2cc(Cl)ccc21 [Example 28, 6-[4-(5-chloro-1-methylindol-3-yl)piperidine-1-carbonyl]-7-fluoro-4H-1,4-benzoxazin-3-one]
0.2 | O=C1COc2ccc(C(=O)N3CCC(C(c4ccc(F)cc4)c4ccc(OCCOCCF)cc4)CC3)cc2N1 (single isomer, unassigned) [Example 107, 6-[4-[(R or S)-[4-[2-(2-Fluoroethoxy)ethoxy]phenyl]-(4-fluorophenyl)methyl]piperidine-1-carbonyl]-4H-1,4-benzoxazin-3-one]
12.2 | CS(=O)(=O)c1cccc(C(c2ccccc2)C2CCN(C(=O)c3ccc4c(c3)NC(=O)CO4)CC2)c1 (single isomer, unassigned) [Example 129, 6-[4-[(R or S)-(3-Methylsulfonylphenyl)-phenyl-methyl]piperidine-1-carbonyl]-4H-1,4-benzoxazin-3-one]
5.83 | O=C1COc2ccc(C(=O)N3CCN(C(c4ccc(F)cc4)c4ccc(F)cc4)CC3)cc2N1 [Example 84, 6-[4-[bis(4-fluorophenyl)methyl]piperazine-1-carbonyl]-4H-1,4-benzoxazin-3-one]
0.43 | O=C1COc2ccc(C(=O)N3CCC([C@H](c4ccccc4)c4cccc(F)c4)CC3)cc2N1 [Example 75, 6-[4-[(R)-(3-fluorophenyl)-phenyl-methyl]piperidine-1-carbonyl]-4H-1,4-benzoxazin-3-one]
7.4 | O=C1COc2ccc(C(=O)N3CCC(C(c4ccccc4)c4ccc(OCCOCCF)cc4)CC3)cc2N1 (single isomer, unassigned) [Example 97, 6-[4-[(R or S)-[4-[2-(2-Fluoroethoxy)ethoxy]phenyl]-phenyl-methyl]piperidine-1-carbonyl]-4H-1,4-benzoxazin-3-one]
0.6 | CS(=O)(=O)c1cccc(C(c2ccccc2)C2CCN(C(=O)c3ccc4c(c3)NC(=O)CO4)CC2)c1 (single isomer, unassigned) [Example 128, 6-[4-[(S or R)-(3-Methylsulfonylphenyl)-phenyl-methyl]piperidine-1-carbonyl]-4H-1,4-benzoxazin-3-one]
6.4 | COc1cc(C(=O)N2CCC(C(c3ccc(F)cc3)c3ccc(F)cc3)CC2)cc2c1CCC(=O)N2 [Example 100, 7-[4-[Bis(4-fluorophenyl)methyl]piperidine-1-carbonyl]-5-methoxy-3,4-dihydro-1H-quinolin-2-one]
9.6 | O=C1COc2ccc(C(=O)N3CCC(C(c4ccc(F)cc4)c4ccc(OCCOCCF)cc4)CC3)cc2N1 (single isomer, unassigned) [Example 108, 6-[4-[(S or R)-[4-[2-(2-Fluoroethoxy)ethoxy]phenyl]-(4-fluorophenyl)methyl]piperidine-1-carbonyl]-4H-1,4-benzoxazin-3-one]
1.8 | Cn1cc(C2CCN(C(=O)c3cc4c(cc3F)OCC(=O)N4)CC2)c2cc(Cl)c(F)cc21 [Example 26, 6-[4-(5-chloro-6-fluoro-1-methylindol-3-yl)piperidine-1-carbonyl]-7-fluoro-4H-1,4-benzoxazin-3-one]
7.7 | COc1ccc(C(c2ccncc2)C2CCN(C(=O)c3ccc4c(c3)NC(=O)CO4)CC2)cc1OC (single isomer, unassigned) [Example 125, 6-[4-[(S or R)-(3,4-Dimethoxyphenyl)-(4-pyridyl)methyl]piperidine-1-carbonyl]-4H-1,4-benzoxazin-3-one]
2740 | COc1cc(N2CCN(C(=O)c3ccc4c(c3)NC(=O)CO4)CC2)cc(OC)c1OC [Example 92, 6-[4-(3,4,5-trimethoxyphenyl)piperazine-1-carbonyl]-4H-1,4-benzoxazin-3-one]
0.3 | O=C1COc2ccc(C(=O)N3CCC([C@@H](c4ccccc4)c4ccc(OCCF)cc4)CC3)cc2N1 [Example 80, 6-[4-[(S)-[4-(2-fluoroethoxy)phenyl]-phenyl-methyl]piperidine-1-carbonyl]-4H-1,4-benzoxazin-3-one]
4.8 | O=C1COc2ccc(C(=O)N3CCC(C(c4ccc(F)cc4)c4cccc(F)n4)CC3)cc2N1 (single isomer, unassigned) [Example 118, 6-[4-[(S or R)-(4-fluorophenyl)-(6-fluoro-2-pyridyl)methyl]piperidine-1-carbonyl]-4H-1,4-benzoxazin-3-one]
9.1 | O=C1COc2ccc(C(=O)N3CCC(C(c4ccc(F)cc4)c4cccc(F)n4)CC3)cc2N1 (single isomer, unassigned) [Example 119, 6-[4-[(R or S)-(4-Fluorophenyl)-(6-fluoro-2-pyridyl)methyl]piperidine-1-carbonyl]-4H-1,4-benzoxazin-3-one]
1.5 | O=C1COc2ccc(C(=O)N3CCC(C(c4ccc(F)cc4)c4ccnc(F)c4)CC3)cc2N1 (single isomer, unassigned) [Example 111, 6-[4-[(R or S)-(4-Fluorophenyl)-(2-fluoro-4-pyridyl)methyl]piperidine-1-carbonyl]-4H-1,4-benzoxazin-3-one]
6.2 | O=C1CCc2c(cc(C(=O)N3CCC(C(c4ccccc4)c4ccccc4)CC3)cc2OCCF)N1 [Example 109, 7-(4-Benzhydrylpiperidine-1-carbonyl)-5-(2-fluoroethoxy)-3,4-dihydro-1H-quinolin-2-one]
1900 | COc1cc(OC)cc(N2CCN(C(=O)c3ccc4c(c3)NC(=O)CO4)CC2)c1 [Example 89, 6-[4-(3,5-dimethoxyphenyl)piperazine-1-carbonyl]-4H-1,4-benzoxazin-3-one]
28.9 | Cn1cc(C2CCN(C(=O)c3ccc4c(c3)NC(=O)CO4)CC2)c2ccccc21 [Example 31, 6-[4-(1-methylindol-3-yl)piperidine-1-carbonyl]-4H-1,4-benzoxazin-3-one]
3.5 | O=C1COc2ccc(C(=O)N3CCC(=C(c4ccc(F)cc4)c4ccc(OCCF)cc4)CC3)cc2N1 [Example 93, 6-[4-[[4-(2-Fluoroethoxy)phenyl]-(4-fluorophenyl)methylene]piperidine-1-carbonyl]-4H-1,4-benzoxazin-3-one]
0.73 | O=C1COc2ccc(C(=O)N3CCC(C(c4ccccc4)c4ccc(OCCF)cc4)CC3)cc2N1 (stereo not drawn) [Example 73, 6-[4-[[4-(2-fluoroethoxy)phenyl]-penyl-methyl]piperidine-1-carbonyl]-4H-1,4-benzoxazin-3-one]
10.6 | O=C1COc2ccc(C(=O)N3CCC(c4c[nH]c5cc(F)ccc45)CC3)cc2N1 [Example 23, 6-[4-(6-fluoro-1H-indol-3-yl)piperidine-1-carbonyl]-4H-1,4-benzoxazin-3-one]
